BindingDB's records for doi:10.1021/acschembio.7b00041 (Bc Cancer Agency, 2017)

What was measured:
Assay in all cases: ATPase enzyme assay
[1] = target: Eukaryotic initiation factor 4A-I (Homo sapiens, UniProt P60842)
Procedure: (§1) Inhibitory activity was assessed under the following conditions: 350 uM ATP/1.5 ug mL−1 RNA indicated by black; 35 uM ATP/1.5 ug mL−1 RNA indicated by red; 3.5 uM ATP/1.5 ug mL−1 RNA indicated by blue; 35 uM ATP/60 ug mL−1 RNA indicated by green (n = 4, mean +/- standard deviation).

[2] = target: Eukaryotic initiation factor 4A-II (Homo sapiens, UniProt Q14240)
Chain of Eukaryotic initiation factor 4A-II (Q14240 whole entry): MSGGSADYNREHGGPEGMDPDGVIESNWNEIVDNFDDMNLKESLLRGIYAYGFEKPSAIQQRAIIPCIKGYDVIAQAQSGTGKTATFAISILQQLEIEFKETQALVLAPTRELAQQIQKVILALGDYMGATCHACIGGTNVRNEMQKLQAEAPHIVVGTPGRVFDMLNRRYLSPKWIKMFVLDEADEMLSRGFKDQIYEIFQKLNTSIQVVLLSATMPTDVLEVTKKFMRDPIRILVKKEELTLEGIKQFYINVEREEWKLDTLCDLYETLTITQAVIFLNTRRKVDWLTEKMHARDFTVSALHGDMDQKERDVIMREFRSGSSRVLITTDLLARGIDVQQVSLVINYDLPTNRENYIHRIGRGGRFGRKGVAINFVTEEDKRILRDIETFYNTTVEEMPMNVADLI
Procedure: as §1

[3] = target: T1, ATP-dependent RNA helicase DHX29 (Homo sapiens, UniProt Q7Z478)
T1 sequence (Q7Z478 whole entry): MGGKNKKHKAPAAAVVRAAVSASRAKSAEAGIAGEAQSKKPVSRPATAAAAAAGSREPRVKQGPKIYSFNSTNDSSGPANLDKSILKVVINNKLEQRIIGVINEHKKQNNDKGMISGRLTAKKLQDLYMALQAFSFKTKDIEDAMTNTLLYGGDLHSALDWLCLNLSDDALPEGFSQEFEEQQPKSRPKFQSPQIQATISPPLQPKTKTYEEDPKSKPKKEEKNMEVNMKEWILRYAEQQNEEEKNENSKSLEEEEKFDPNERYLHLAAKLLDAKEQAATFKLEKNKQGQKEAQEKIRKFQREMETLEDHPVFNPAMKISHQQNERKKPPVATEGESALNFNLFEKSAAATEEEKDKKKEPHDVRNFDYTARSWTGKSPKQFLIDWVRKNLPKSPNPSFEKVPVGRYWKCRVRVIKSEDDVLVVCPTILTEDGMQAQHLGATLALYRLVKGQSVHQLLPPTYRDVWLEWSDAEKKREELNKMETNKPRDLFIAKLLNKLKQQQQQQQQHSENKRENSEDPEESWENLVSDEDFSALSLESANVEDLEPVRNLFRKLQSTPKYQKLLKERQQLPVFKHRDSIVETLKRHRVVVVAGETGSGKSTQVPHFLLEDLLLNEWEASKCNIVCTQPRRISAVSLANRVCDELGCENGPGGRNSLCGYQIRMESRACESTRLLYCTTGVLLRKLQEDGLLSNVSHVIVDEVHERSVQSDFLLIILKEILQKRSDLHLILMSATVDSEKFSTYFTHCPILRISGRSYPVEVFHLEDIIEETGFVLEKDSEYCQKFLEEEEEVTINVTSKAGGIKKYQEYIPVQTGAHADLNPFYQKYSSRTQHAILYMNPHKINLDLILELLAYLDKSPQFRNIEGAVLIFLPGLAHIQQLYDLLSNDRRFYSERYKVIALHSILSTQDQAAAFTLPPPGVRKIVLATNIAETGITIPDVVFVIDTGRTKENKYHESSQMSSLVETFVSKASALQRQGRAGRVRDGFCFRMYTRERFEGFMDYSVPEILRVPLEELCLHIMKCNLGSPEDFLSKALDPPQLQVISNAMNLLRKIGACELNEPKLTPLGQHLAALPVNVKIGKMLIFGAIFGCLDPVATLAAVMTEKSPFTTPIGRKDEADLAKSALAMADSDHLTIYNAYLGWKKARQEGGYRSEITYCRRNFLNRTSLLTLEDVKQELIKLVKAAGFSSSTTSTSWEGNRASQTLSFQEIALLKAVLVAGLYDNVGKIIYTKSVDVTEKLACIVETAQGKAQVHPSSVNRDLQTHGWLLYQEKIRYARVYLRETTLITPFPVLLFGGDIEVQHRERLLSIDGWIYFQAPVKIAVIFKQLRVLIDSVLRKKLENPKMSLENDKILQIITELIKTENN
Procedure: as §1

[4] = target: U5 small nuclear ribonucleoprotein 200 kDa helicase (Homo sapiens, UniProt O75643)
Chain of U5 small nuclear ribonucleoprotein 200 kDa helicase (O75643 whole entry): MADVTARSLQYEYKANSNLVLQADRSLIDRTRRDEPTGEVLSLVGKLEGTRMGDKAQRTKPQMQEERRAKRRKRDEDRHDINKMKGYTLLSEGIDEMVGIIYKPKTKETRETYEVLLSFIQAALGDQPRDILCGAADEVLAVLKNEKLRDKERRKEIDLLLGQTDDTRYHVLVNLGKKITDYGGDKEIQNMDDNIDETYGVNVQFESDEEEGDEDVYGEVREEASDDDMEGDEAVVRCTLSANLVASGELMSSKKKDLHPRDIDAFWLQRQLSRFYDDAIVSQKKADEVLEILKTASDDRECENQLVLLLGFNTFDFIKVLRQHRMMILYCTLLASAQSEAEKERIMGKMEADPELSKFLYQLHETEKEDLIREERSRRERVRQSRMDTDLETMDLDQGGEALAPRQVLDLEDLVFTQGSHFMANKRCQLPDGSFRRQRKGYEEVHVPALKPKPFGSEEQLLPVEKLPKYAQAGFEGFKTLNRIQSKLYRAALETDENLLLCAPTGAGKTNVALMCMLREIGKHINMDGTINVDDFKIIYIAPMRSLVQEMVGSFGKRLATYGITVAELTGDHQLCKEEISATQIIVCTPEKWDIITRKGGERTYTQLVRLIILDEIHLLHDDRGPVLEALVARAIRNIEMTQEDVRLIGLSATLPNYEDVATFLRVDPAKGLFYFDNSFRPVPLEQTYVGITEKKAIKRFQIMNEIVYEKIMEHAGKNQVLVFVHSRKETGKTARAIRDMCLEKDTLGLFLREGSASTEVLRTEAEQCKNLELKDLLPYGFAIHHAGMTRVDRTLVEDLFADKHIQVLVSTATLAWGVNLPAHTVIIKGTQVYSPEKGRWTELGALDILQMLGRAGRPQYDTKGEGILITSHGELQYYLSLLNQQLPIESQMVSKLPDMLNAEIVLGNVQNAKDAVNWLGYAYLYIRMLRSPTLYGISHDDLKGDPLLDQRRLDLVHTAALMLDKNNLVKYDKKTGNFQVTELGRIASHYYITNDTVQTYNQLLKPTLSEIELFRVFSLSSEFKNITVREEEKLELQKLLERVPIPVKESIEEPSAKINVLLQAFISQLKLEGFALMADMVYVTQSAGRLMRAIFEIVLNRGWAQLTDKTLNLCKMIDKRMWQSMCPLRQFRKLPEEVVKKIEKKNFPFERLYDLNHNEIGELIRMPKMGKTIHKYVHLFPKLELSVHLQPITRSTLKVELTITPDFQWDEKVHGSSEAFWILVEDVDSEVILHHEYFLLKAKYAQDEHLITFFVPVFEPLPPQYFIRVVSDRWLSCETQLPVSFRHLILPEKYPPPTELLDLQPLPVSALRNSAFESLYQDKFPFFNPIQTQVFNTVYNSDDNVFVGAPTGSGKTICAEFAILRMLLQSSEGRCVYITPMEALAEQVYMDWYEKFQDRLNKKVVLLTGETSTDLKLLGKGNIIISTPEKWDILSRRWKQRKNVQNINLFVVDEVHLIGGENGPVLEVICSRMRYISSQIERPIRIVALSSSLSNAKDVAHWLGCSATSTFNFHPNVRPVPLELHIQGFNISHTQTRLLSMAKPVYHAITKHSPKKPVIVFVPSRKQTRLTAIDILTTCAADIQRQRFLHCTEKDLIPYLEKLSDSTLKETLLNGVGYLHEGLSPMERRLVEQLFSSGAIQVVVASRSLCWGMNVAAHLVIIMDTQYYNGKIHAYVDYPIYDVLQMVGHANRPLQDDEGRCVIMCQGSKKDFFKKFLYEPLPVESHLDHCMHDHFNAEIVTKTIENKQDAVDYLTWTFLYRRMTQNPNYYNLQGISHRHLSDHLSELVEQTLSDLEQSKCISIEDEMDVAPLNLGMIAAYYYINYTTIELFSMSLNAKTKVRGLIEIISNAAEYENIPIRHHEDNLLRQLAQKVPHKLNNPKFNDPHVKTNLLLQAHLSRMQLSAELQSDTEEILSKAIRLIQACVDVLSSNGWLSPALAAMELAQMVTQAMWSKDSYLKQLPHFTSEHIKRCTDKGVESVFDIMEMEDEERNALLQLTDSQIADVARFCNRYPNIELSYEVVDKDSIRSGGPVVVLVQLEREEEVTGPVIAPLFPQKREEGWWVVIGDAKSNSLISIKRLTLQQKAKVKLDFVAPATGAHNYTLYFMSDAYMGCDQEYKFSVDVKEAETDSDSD
Procedure: as §1

[5] = target: Eukaryotic initiation factor 4A-III (Homo sapiens, UniProt P38919)
Chain of Eukaryotic initiation factor 4A-III (P38919 whole entry): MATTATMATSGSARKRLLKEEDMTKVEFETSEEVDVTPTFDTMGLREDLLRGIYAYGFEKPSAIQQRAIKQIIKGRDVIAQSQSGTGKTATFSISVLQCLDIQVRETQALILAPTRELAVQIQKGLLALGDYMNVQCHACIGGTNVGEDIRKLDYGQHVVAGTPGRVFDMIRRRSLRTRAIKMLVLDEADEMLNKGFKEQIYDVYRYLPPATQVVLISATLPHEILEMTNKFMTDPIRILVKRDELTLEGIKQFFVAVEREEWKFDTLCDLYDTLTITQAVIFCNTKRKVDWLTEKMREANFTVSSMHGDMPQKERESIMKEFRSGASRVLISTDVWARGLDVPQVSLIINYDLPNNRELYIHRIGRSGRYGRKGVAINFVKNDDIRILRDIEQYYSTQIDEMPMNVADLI
Procedure: as §1

Chain of Eukaryotic initiation factor 4A-I (P60842 whole entry): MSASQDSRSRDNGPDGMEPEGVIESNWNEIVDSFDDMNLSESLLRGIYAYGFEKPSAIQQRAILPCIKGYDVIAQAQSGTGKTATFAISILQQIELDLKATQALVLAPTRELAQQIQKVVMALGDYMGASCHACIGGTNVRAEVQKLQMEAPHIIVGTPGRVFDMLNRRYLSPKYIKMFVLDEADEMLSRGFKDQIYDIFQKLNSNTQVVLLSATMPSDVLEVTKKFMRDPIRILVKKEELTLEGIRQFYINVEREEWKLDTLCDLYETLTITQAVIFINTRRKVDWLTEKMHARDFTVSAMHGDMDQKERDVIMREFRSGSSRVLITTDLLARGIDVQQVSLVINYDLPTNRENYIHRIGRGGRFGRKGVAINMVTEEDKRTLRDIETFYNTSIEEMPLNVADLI

IC50 [1]: > 100 µM
IC50 [2]: > 100 µM
IC50 [3]: > 100 µM
IC50 [4]: > 100 µM
IC50 [5]: 110 nM
SMILES: O=C(c1cnn2cc(Br)ccc12)N1CCN(C(=O)c2ccc(Br)cc2)[C@@H](c2ccc(Cl)cc2)C1 [eIF4A3 inhibitor, 2]
